Data on six compounds can be found in US20140121235A1, “Method for Treating S6K-Overexpressing Cancers” (Rush University Medical Center, priority 2012, published 2014).

The subject of assay [1] is A375 cells. The assay can be described thus: Cell cycle analysis (propidium iodine, flow cytometer). The format is cell-based. The conditions noted are these: for effect on cell cycle, inhibitor alone: PLX4720 1 μM, U0126 10 μM, PD98059 10 μM, rapamycin 20 nM, LY294002 10 μM. As for the experimental part: (A) Ability of uridine to relieve the cell cycle arrest in the S phase. A375 cells grown in 6-well plates were treated with the indicated concentration of A771726 with or without uridine (200 μM) for 24 hr. Cell cycle was analyzed in a flow cytometer as described in Materials and Methods. (B) Effect of the MAP kinase pathway inhibitors on A77 1726-mediated cell cycle arrest in the S phase. A375 cells were treated with A771726 (100 μM) in the absence or presence of 0.1% DMSO, […] (1 μM), U0126 (10 μM), PD98059 (10 for 24 hr. Single cell suspensions were prepared and analyzed for cell cycle in a flow cytometer. (C) Effect of the PI-3 kinase pathway inhibitors and their effect on A77 1726-mediated cell cycle arrest. A375 cells were treated with A77 1726 (100 μM), rapamycin (20 nM), and/or LY294002 (10 μM). After incubation for 24 hr, cells were harvested and analyzed for cell cycle progress.
(§1) Cells were grown in complete RPMI1640 medium with 10% fetal bovine serum in 6-well plates. Upon 60% confluence, the cells were treated with vehicle or with indicated concentrations of A77 1726 or various inhibitors as indicated for 24 hr. Cells were pulsed with 10 μM BrdU for 2 hr. Cells were harvested, denatured with 2N HCl for 5 min at room temperature followed by neutralization with 0.1M borate buffer (pH 8.5). After washing and blocking with normal mouse serum, the cells were stained with an Alexa Fluor 488-conjugated anti-BrdU monoclonal antibody (BD Bioscience), followed by analysis in a flow cytometer. Alexa Fluor 488-conjugated mouse IgG was included as a control. For cell cycle analysis, the cells were harvested and fixed with 2 ml cold 70% ethanol in PBS overnight at 4° C. Fixed cells were then washed 3 times with PBS, treated with RNaseA (100 μg/ml in 0.5 ml PBS). After incubation at room temperature for 30 min, cells were stained with 2.5 μl propidium iodine (10 mg/ml.) and immediately analyzed for DNA content in a flow cytometer.
(In general: Flow cytometry measures light scatter and fluorescence of single cells or particles in a stream.)

Assay [2] has as its system A375 cells. The assay can be described thus: BrdU incorporation (DNA replication), flow cytometry. In kind it is cell-based. The conditions noted are these: for block of A77 1726-induced BrdU incorporation / DNA synthesis: A77 1726 100 μM plus inhibitor; for effect on DNA replication (BrdU labeling), inhibitor alone: PLX4720 1 μM, U0126 10 μM, rapamycin 20 nM, LY294002 10 μM. As for the experimental part:
(A) The effect of uridine to A77 1726-induced DNA synthesis. A375 cells were treated with the indicated concentration of A771726 in the absence or presence of uridine (200 μM) for 22 hr. After pulsing with BrdU (10 µM) for 2 hr, cells were harvested and analyzed for BrdU incorporation by staining with an Alexa Fluor-488-conjugated anti-BrdU monoclonal antibody followed by flow cytometry. (B) Effect of the MAP kinase pathway inhibitors to A77 1726-stimulated BrdU incorporation. A375 cells were treated with A77 1726 (100 μM) in the presence of 0.1% DMSO, PLX4720 (1 μM), U0126 (10 µM), PD98059 (10 μM). After incubation for 22 hr the cells were pulsed with BrdU for 2 hr. Single cell suspensions were stained for BrdU incorporation and analyzed for cell cycle in a flow cytometer as described in (A). (C) Effect of the PI-3 kinase pathway inhibitors and their effect on A77 1726-stimualted BrdU incorpration. A375 cells were treated with A771726 (100 μM), rapamycin (20 nM), and/or […] (10 μM). After incubation for 22 hr, cells were pulsed with BrdU for 2 hr, harvested and analyzed for BrdU labeling in a flow cytometer.
as §1

The test system of assay [3] is ERK1/2^T202/Y204 and MEK1/2^S217/S221 phosphorylation. The assay is described as follows: Western blot of MAP kinase pathway phosphorylation in A375 cells. In kind it is cell-based. As to conditions: for block of A77 1726-induced ERK1/2 and MEK1/2 phosphorylation: A375 cells pre-treated with inhibitor 1 hr, then A77 1726 100 μM 2 hr; for effect on ERK1/2 and MEK phosphorylation, inhibitor alone: A375 cells, PLX 4720 1 μM, rapamycin 20 nM, PPP 1 μM. As for the experimental part: (§2) A375 cells seeded in a 6-well plate were starved in DMEM medium containing 0.5% FBS for 2 hr and treated with the indicated concentration of A77 1726 or PLX 4720 (1 μM) for another 2 hr (A) or treated with A77 1726 (100 μM) for the indicated time (B & C). Cells were harvested and analyzed for protein phosphorylation by specific antibodies as indicated. Protein loading was monitored by stripping membrane and re-probing with antibodies against non-phosphorylated proteins. […] A375 cells seeded in a 6-well plate were starved in DMEM medium containing 05% FBS for 2 hr and treated with the indicated concentration of A77 1726 in the absence or presence of uridine (200 μM). Phosphorylated and total proteins were analyzed by Western blot as described above.
(§3) A375 cells seeded in 6-well plates were starved in DMEM medium containing 0.5% FBS for 2 hr and then pre-treated with vehicle (0.1% dimethyl sulfoxide), LY294002 (10 μM) (A), PPP (1 μM) (B), or the inhibitors of the MAP kinase pathway (PLX4720, 1 μM; U0126, 10 μM; PD98059, 10 μM) (C) for 1 hr. Cells were then treated with A77 1726 (100 μM) or rapamycin (20 nM) as indicated for 2 hr. Cells were harvested and analyzed for protein phosphorylation by specific antibodies as indicated. Protein loading was monitored by stripping membrane and re-probing with antibodies against non-phosphorylated proteins.
(§4) Cells grown in 6-well plates were harvested and lysed in NP-40 lysis buffer (50 mM Tris-HCI (pH 8.0), 150 mM NaCl, 1% NP-40, 5 mM EDTA, 10 μg/ml aprotinin, 10 μg/ml leupeptin, and 1 mM phenylmethylsulfonyl fluoride). After incubation on ice for 30 min, the cell lysates were prepared by spinning down at 4° C., 15,000 rpm for 15 min. After electrophoresis and transfer to Immobolin membrane, proteins of interest were probed with their specific antibodies, followed by horseradish peroxidase-conjugated goat anti-rabbit IgG and SuperSignal Western Pico enhanced chemiluminoscence substrate (Pierce Chemical Co., Rockford, Ill.).
(§5) The PI-3 and MAP kinase pathways play an important role in cell proliferation, differentiation, and cell cycle progress. Multiple genes in these two pathways are frequently mutated and have a commanding role in driving tumorigenesis and tumor cell proliferation (2; 3). […] Here we tested whether A77 1726 affected the activation of MAP and PI-3 kinase pathways. A375 cells grown in 6-well plates were starved in the media containing 0.5% FBS for 2 hr and then treated with the indicated concentration of A77 1726. […] We next explored the effect of A77 1726 in phosphorylation of the molecules in the PI-3 kinase pathway.

The subject of assay [4] is AKT^S473 and S6K1^T389 phosphorylation. The assay is described as follows: Western blot of PI-3 kinase pathway phosphorylation in A375 cells. In kind it is cell-based. The conditions noted are these: for effect on AKT^S473 phosphorylation in A77 1726-treated cells: A375 cells, MAP kinase pathway inhibitor plus A77 1726. As for the experimental part: as §2, §3, §4, §5

The test system of assay [5] is A375 cells. The assay is described as follows: Cell proliferation assay (ATP-based Cell-Glo). As for the experimental part: A375 cells were seeded in 96-well plates (2000 cells/well) and incubated the indicated concentrations of A77 1726 for 72 hr in the absence or presence of various concentrations PLX4720 (A, C) with or without uridine (200 μM) (B, D). Cell proliferation was analyzed by an ATP-based Cell-Glo assay. One representative of three experiments with similar results was shown. *p<0.01.
A375 cells were grown in complete RPMI 1640 medium supplemented with 10% fetal bovine serum. The cells were seeded in 96-well plates at the density of 2,000/well in the absence or presence of various concentrations of A77 1726, PLX4720, or uridine (200 μM). After incubation for 72 hr, cell proliferation was monitored by using an ATP-based Cell-Glo assay (Promegan, Madison, Wis.) following the manufacturer's instruction.

The subject of assay [6] is ribosomal protein S6^S235/S236 phosphorylation. The assay is described as follows: Western blot of S6 phosphorylation in A375 cells. The format is cell-based. The conditions noted are these: A375 cells; A77 1726 dose-dependent or 100 μM, rapamycin 20 nM, PPP 1 μM. As for the experimental part: as §2, §3, §4, §5
In general terms: Immunoblotting shows a protein as a band on a membrane.

Consider `COc1cccc(-c2cc(=O)c3ccccc3o2)c1N` [PD98059], for which, in the assay with A375 cells [1] (A375 cells, 24 hr), the “effect on cell cycle, inhibitor alone” value is “arrest of the cell cycle in G1 phase”. The “block of A77 1726-induced BrdU incorporation / DNA synthesis” value in the assay on A375 cells [2] is given as “partially blocked”. Besides, the “block of A77 1726-induced ERK1/2 and MEK1/2 phosphorylation” value in assay [3] is given as “unable to block”. Further, the “effect on AKT^S473 phosphorylation in A77 1726-treated cells” value (“effect on AKT^S473 phosphorylation” below) in assay [4] is recorded as “further increase”.
As for `O=c1ccn([C@@H]2O[C@H](CO)[C@@H](O)[C@H]2O)c(=O)[nH]1` [Uridine, uridine], the “effect on cell cycle of A77 1726-treated cells” value in the assay on A375 cells [1] (A375 cells treated with A77 1726 at three concentrations plus uridine) was “almost normalize cell cycle”. In the assay on A375 cells [1] (A375 cells, uridine 200 μM, 24 hr), the “effect on cell cycle arrest, uridine alone” value is given as “little effect”.
For `CCCS(=O)(=O)Nc1ccc(F)c(C(=O)c2c[nH]c3ncc(Cl)cc23)c1F` [PLX4720], in the assay on A375 cells [5] (PLX4720 100 or 500 nM by itself), the “effect on A375 cell proliferation” value is reported as “inhibited”. In addition, in the assay with A375 cells [5] (PLX4720 at 1 nM by itself), the “effect on A375 cell proliferation” value is reported as “had no effect”. Also, the “effect on A375 cell proliferation in combination with A77 1726” value in the assay on A375 cells [5] (in the absence or presence of uridine) is recorded as “additive effect”. The “effect on cell cycle, inhibitor alone” value in the assay on A375 cells [1] (A375 cells, 24 hr) is “arrest of the cell cycle in G1 phase”. Further, in the assay on A375 cells [2], the “block of A77 1726-induced BrdU incorporation / DNA synthesis” value is reported as “able to block” and the “effect on DNA replication (BrdU labeling), inhibitor alone” value is “completely block DNA replication”. In assay [3], the “block of A77 1726-induced ERK1/2 and MEK1/2 phosphorylation” value is listed as “able to block”; the “effect on ERK1/2 and MEK phosphorylation, inhibitor alone” value is “inhibited”. In assay [4], the “effect on AKT^S473 phosphorylation” value is given as “further increase”.
Regarding `N#CC(=C(/N)Sc1ccccc1N)/C(C#N)=C(\N)Sc1ccccc1N` [U0126], the “effect on cell cycle, inhibitor alone” value in the assay on A375 cells [1] (A375 cells, 24 hr) was “arrest of the cell cycle in G1 phase”. Further, in the assay with A375 cells [2], the “block of A77 1726-induced BrdU incorporation / DNA synthesis” value is recorded as “able to block” and the “effect on DNA replication (BrdU labeling), inhibitor alone” value is given as “completely block DNA replication”. Also, the “block of A77 1726-induced ERK1/2 and MEK1/2 phosphorylation” value in assay [3] is “able to block”. Besides, the “effect on AKT^S473 phosphorylation” value in assay [4] is “further increase”.
For the compound `COc1cc([C@@H]2c3cc4c(cc3[C@H](O)[C@H]3COC(=O)[C@@H]23)OCO4)cc(OC)c1OC` [PPP], the “effect on S6^S235/S236 phosphorylation” value in assay [6] was “had no effect”. In assay [3], the “block of A77 1726-induced ERK1/2 and MEK1/2 phosphorylation” value is on record as “abrogated”; the “effect on ERK1/2 and MEK phosphorylation, inhibitor alone” value is listed as “had no effect”. Further, in assay [4] (A375 cells pre-treated with LY294002 10 μM or PPP 1 μM), the “block of A77 1726- and rapamycin-induced AKT phosphorylation” value is recorded as “largely blocked”.
With `CNC(=O)c1cc(Oc2ccc(NC(=O)Nc3ccc(Cl)c(C(F)(F)F)c3)cc2)ccn1` [BAY 43-9006], the “block of A77 1726-induced ERK1/2 and MEK1/2 phosphorylation” value in assay [3] is “able to block”. Also, the “effect on AKT^S473 phosphorylation” value in assay [4] is on record as “further increase”.
